Test results from ChEMBL document CHEMBL3758081, “Synthesis and biological evaluation of new naphthalene substituted thiosemicarbazone derivatives as potent antifungal and anticancer agents” (Eur J Med Chem, 2016).
≈ marks a conversion by molar mass, not a printed value.

Key:
Fusarium solani = assay: Antifungal activity against Fusarium solani NRRL-13414 after 72 hrs by broth microdilution method; format: functional; conditions: NRRL-13414, 72 h
Salmonella typhimurium [1] = assay: Genotoxicity in Salmonella typhimurium TA1535/pSK1002 assessed as growth factor at 0.3125 mg/ml after 2 hrs by umuC assay in presence of Sprague-Dawley rat liver S9 fraction; format: toxicity, organism-based; conditions: salmonella enterica subsp. enterica serovar typhimurium, s9, 2 h
Salmonella typhimurium [2] = assay: Genotoxicity in Salmonella typhimurium TA1535/pSK1002 assessed as growth factor at 1.25 mg/ml after 2 hrs by umuC assay in presence of Sprague-Dawley rat liver S9 fraction; format: toxicity, organism-based; conditions: salmonella enterica subsp. enterica serovar typhimurium, s9, 2 h
Salmonella typhimurium [3] = assay: Genotoxicity in Salmonella typhimurium TA1535/pSK1002 assessed as growth factor at 2.5 mg/ml after 2 hrs by umuC assay in presence of Sprague-Dawley rat liver S9 fraction; format: toxicity, organism-based; conditions: salmonella enterica subsp. enterica serovar typhimurium, s9, 2 h
Salmonella typhimurium [4] = assay: Genotoxicity in Salmonella typhimurium TA1535/pSK1002 assessed as growth factor at 5 mg/ml after 2 hrs by umuC assay in presence of Sprague-Dawley rat liver S9 fraction; format: toxicity, organism-based; conditions: salmonella enterica subsp. enterica serovar typhimurium, s9, 2 h
Salmonella typhimurium [5] = assay: Genotoxicity in Salmonella typhimurium TA1535/pSK1002 assessed as growth factor at 2.5 mg/ml after 2 hrs by umuC assay in absence of Sprague-Dawley rat liver S9 fraction; format: toxicity, organism-based; conditions: salmonella enterica subsp. enterica serovar typhimurium
Salmonella typhimurium [6] = assay: Genotoxicity in Salmonella typhimurium TA1535/pSK1002 assessed as growth factor at 5 mg/ml after 2 hrs by umuC assay in absence of Sprague-Dawley rat liver S9 fraction; format: toxicity, organism-based; conditions: salmonella enterica subsp. enterica serovar typhimurium
[7] = Genotoxicity in Salmonella typhimurium TA1535/pSK1002 assessed as induction ratio at 0.156 mg/ml after 2 hrs by umuC assay in presence of Sprague-Dawley rat liver S9 fraction; format: toxicity, organism-based; conditions: salmonella enterica subsp. enterica serovar typhimurium
[8] = Genotoxicity in Salmonella typhimurium TA1535/pSK1002 assessed as induction ratio at 0.625 mg/ml after 2 hrs by umuC assay in presence of Sprague-Dawley rat liver S9 fraction; format: toxicity, organism-based; conditions: salmonella enterica subsp. enterica serovar typhimurium
[9] = Genotoxicity in Salmonella typhimurium TA1535/pSK1002 assessed as induction ratio at 5 mg/ml after 2 hrs by umuC assay in presence of Sprague-Dawley rat liver S9 fraction; format: toxicity, organism-based; conditions: salmonella enterica subsp. enterica serovar typhimurium
[10] = Genotoxicity in Salmonella typhimurium TA1535/pSK1002 assessed as induction ratio at 0.156 mg/ml after 2 hrs by umuC assay in absence of Sprague-Dawley rat liver S9 fraction; format: toxicity, organism-based; conditions: salmonella enterica subsp. enterica serovar typhimurium
[11] = Genotoxicity in Salmonella typhimurium TA1535/pSK1002 assessed as induction ratio at 0.3125 mg/ml after 2 hrs by umuC assay in absence of Sprague-Dawley rat liver S9 fraction; format: toxicity, organism-based; conditions: salmonella enterica subsp. enterica serovar typhimurium
[12] = Genotoxicity in Salmonella typhimurium TA1535/pSK1002 assessed as induction ratio at 0.625 mg/ml after 2 hrs by umuC assay in absence of Sprague-Dawley rat liver S9 fraction; format: toxicity, organism-based; conditions: salmonella enterica subsp. enterica serovar typhimurium
[13] = Genotoxicity in Salmonella typhimurium TA1535/pSK1002 assessed as induction ratio at 1.25 mg/ml after 2 hrs by umuC assay in absence of Sprague-Dawley rat liver S9 fraction; format: toxicity, organism-based; conditions: salmonella enterica subsp. enterica serovar typhimurium
[14] = Genotoxicity in Salmonella typhimurium TA1535/pSK1002 assessed as induction ratio at 5 mg/ml after 2 hrs by umuC assay in absence of Sprague-Dawley rat liver S9 fraction; format: toxicity, organism-based; conditions: salmonella enterica subsp. enterica serovar typhimurium
Salmonella typhimurium [15] = assay: Mutagenicity in Salmonella typhimurium TA98 at 0.156 mg/ml after 48 hrs by Ames MPF assay in presence of Sprague-Dawley rat liver S9 fraction; format: toxicity, organism-based; conditions: salmonella enterica subsp. enterica serovar typhimurium, s9, 48 h
Salmonella typhimurium [16] = assay: Mutagenicity in Salmonella typhimurium TA98 at 0.3125 mg/ml after 48 hrs by Ames MPF assay in presence of Sprague-Dawley rat liver S9 fraction; format: toxicity, organism-based; conditions: salmonella enterica subsp. enterica serovar typhimurium, s9, 48 h
Salmonella typhimurium [17] = assay: Mutagenicity in Salmonella typhimurium TA98 at 0.3125 mg/ml after 48 hrs by Ames MPF assay in absence of Sprague-Dawley rat liver S9 fraction; format: toxicity, organism-based; conditions: salmonella enterica subsp. enterica serovar typhimurium
Nakaseomyces glabratus = assay: Antifungal activity against clinical isolate Candida glabrata after 48 hrs by broth microdilution method; format: functional
Candida albicans = assay: Antifungal activity against Candida albicans ATCC-90028 after 48 hrs by broth microdilution method; format: functional; conditions: ATCC-90028, 48 h
Pichia kudriavzevii = assay: Antifungal activity against Candida krusei NRLL Y-7179 after 48 hrs by broth microdilution method; format: functional; conditions: NRLL Y-7179, 48 h
[Candida] zeylanoides = Antifungal activity against Candida zeylanoides NRLL Y-1774 after 48 hrs by broth microdilution method; format: functional; conditions: Dujonia zeylanoides, NRLL Y-1774, 48 h
Candida parapsilosis = assay: Antifungal activity against Candida parapsilosis NRLL Y-12696 after 48 hrs by broth microdilution method; format: functional; conditions: Lodderomyces parapsilosis, NRLL Y-12696, 48 h
Aspergillus flavus = assay: Antifungal activity against Aspergillus flavus NRRL-980 after 72 hrs by broth microdilution method; format: functional; conditions: NRRL-980, 72 h
Salmonella typhimurium [18] = assay: Genotoxicity in Salmonella typhimurium TA1535/pSK1002 assessed as growth factor at 0.156 mg/ml after 2 hrs by umuC assay in absence of Sprague-Dawley rat liver S9 fraction; format: toxicity, organism-based; conditions: salmonella enterica subsp. enterica serovar typhimurium
Salmonella typhimurium [19] = assay: Genotoxicity in Salmonella typhimurium TA1535/pSK1002 assessed as growth factor at 0.625 mg/ml after 2 hrs by umuC assay in absence of Sprague-Dawley rat liver S9 fraction; format: toxicity, organism-based; conditions: salmonella enterica subsp. enterica serovar typhimurium
Salmonella typhimurium [20] = assay: Mutagenicity in Salmonella typhimurium TA98 at 2.5 mg/ml after 48 hrs by Ames MPF assay in absence of Sprague-Dawley rat liver S9 fraction; format: toxicity, organism-based; conditions: salmonella enterica subsp. enterica serovar typhimurium
Salmonella typhimurium [21] = assay: Mutagenicity in Salmonella typhimurium TA98 at 5 mg/ml after 48 hrs by Ames MPF assay in absence of Sprague-Dawley rat liver S9 fraction; format: toxicity, organism-based; conditions: salmonella enterica subsp. enterica serovar typhimurium
Salmonella typhimurium [22] = assay: Mutagenicity in Salmonella typhimurium TA100 at 0.156 mg/ml after 48 hrs by Ames MPF assay in presence of Sprague-Dawley rat liver S9 fraction; format: toxicity, organism-based; conditions: salmonella enterica subsp. enterica serovar typhimurium, s9, 48 h
Salmonella typhimurium [23] = assay: Mutagenicity in Salmonella typhimurium TA100 at 0.625 mg/ml after 48 hrs by Ames MPF assay in presence of Sprague-Dawley rat liver S9 fraction; format: toxicity, organism-based; conditions: salmonella enterica subsp. enterica serovar typhimurium, s9, 48 h
Salmonella typhimurium [24] = assay: Mutagenicity in Salmonella typhimurium TA100 at 1.25 mg/ml after 48 hrs by Ames MPF assay in presence of Sprague-Dawley rat liver S9 fraction; format: toxicity, organism-based; conditions: salmonella enterica subsp. enterica serovar typhimurium, s9, 48 h
Salmonella typhimurium [25] = assay: Mutagenicity in Salmonella typhimurium TA100 at 2.5 mg/ml after 48 hrs by Ames MPF assay in presence of Sprague-Dawley rat liver S9 fraction; format: toxicity, organism-based; conditions: salmonella enterica subsp. enterica serovar typhimurium, s9, 48 h
Salmonella typhimurium [26] = assay: Mutagenicity in Salmonella typhimurium TA100 at 0.156 mg/ml after 48 hrs by Ames MPF assay in absence of Sprague-Dawley rat liver S9 fraction; format: toxicity, organism-based; conditions: salmonella enterica subsp. enterica serovar typhimurium
Salmonella typhimurium [27] = assay: Mutagenicity in Salmonella typhimurium TA100 at 0.625 mg/ml after 48 hrs by Ames MPF assay in absence of Sprague-Dawley rat liver S9 fraction; format: toxicity, organism-based; conditions: salmonella enterica subsp. enterica serovar typhimurium
Salmonella typhimurium [28] = assay: Mutagenicity in Salmonella typhimurium TA100 at 1.25 mg/ml after 48 hrs by Ames MPF assay in absence of Sprague-Dawley rat liver S9 fraction; format: toxicity, organism-based; conditions: salmonella enterica subsp. enterica serovar typhimurium
Salmonella typhimurium [29] = assay: Mutagenicity in Salmonella typhimurium TA100 at 5 mg/ml after 48 hrs by Ames MPF assay in absence of Sprague-Dawley rat liver S9 fraction; format: toxicity, organism-based; conditions: salmonella enterica subsp. enterica serovar typhimurium

| MIC (Fusarium solani) | MIC (Nakaseomyces glabratus) | MIC (Candida albicans) | SMILES | Activity (Salmonella typhimurium [1]) | Activity (Salmonella typhimurium [2]) | Activity (Salmonella typhimurium [3]) | Activity (Salmonella typhimurium [4]) | Activity (Salmonella typhimurium [5]) | Activity (Salmonella typhimurium [6]) | fold induction at 2 h, 0.156 mg/ml [7] | fold induction at 2 h, 0.625 mg/ml [8] | fold induction at 2 h, 5 mg/ml [9] | fold induction at 2 h, 0.156 mg/ml [10] | fold induction at 2 h, 0.3125 mg/ml [11] | fold induction at 2 h, 0.625 mg/ml [12] | fold induction at 2 h, 1.25 mg/ml [13] | fold induction at 2 h, 5 mg/ml [14] | fold change (FC) (Salmonella typhimurium [15]) | fold change (FC) (Salmonella typhimurium [16]) | fold change (FC) (Salmonella typhimurium [17]) | further results |
| --- | --- | --- | --- | --- | --- | --- | --- | --- | --- | --- | --- | --- | --- | --- | --- | --- | --- | --- | --- | --- | --- |
| 250 µg/mL (≈ 732 µM) | 125 µg/mL (≈ 366 µM) | 250 µg/mL (≈ 732 µM) | Fc1cccc(/C=N/NC(=S)Nc2cccc3ccccc23)c1F | 0.121 | 0.228 | 0.231 | 0.24 | 0.311 | 0.146 | 5.34 | 1.39 | 1.46 | 6 | 1.79 | 1.75 | 1.63 | 1.55 | 0.94 | 0.84 | 0 | MIC (Pichia kudriavzevii): 250 µg/mL (≈ 732 µM); MIC ([Candida] zeylanoides): 250 µg/mL (≈ 732 µM); MIC (Candida parapsilosis): 250 µg/mL (≈ 732 µM); MIC (Aspergillus flavus): 250 µg/mL (≈ 732 µM); Activity (Salmonella typhimurium [18]): 0.14; Activity (Salmonella typhimurium [19]): 0.137; fold change (FC) (Salmonella typhimurium [20]): 0; fold change (FC) (Salmonella typhimurium [21]): 0.34; fold change (FC) (Salmonella typhimurium [22]): 1.02; fold change (FC) (Salmonella typhimurium [23]): 0.92; fold change (FC) (Salmonella typhimurium [24]): 0.68; fold change (FC) (Salmonella typhimurium [25]): 0.58; fold change (FC) (Salmonella typhimurium [26]): 0.48; fold change (FC) (Salmonella typhimurium [27]): 0.42; fold change (FC) (Salmonella typhimurium [28]): 0.42; fold change (FC) (Salmonella typhimurium [29]): 0.42 |
| 250 µg/mL (≈ 732 µM) | 125 µg/mL (≈ 366 µM) | 250 µg/mL (≈ 732 µM) | Fc1ccc(F)c(/C=N/NC(=S)Nc2cccc3ccccc23)c1 | 0.23 | 0.121 | 0.236 | 0.228 | 0.137 | 0.131 | 1.5 | 5.34 | 1.42 | 1.79 | 1.3 | 6 | 1.79 | 1.63 | 0.65 | 1.12 | 0 | MIC (Pichia kudriavzevii): 250 µg/mL (≈ 732 µM); MIC ([Candida] zeylanoides): 250 µg/mL (≈ 732 µM); MIC (Candida parapsilosis): 250 µg/mL (≈ 732 µM); MIC (Aspergillus flavus): 250 µg/mL (≈ 732 µM); Activity (Salmonella typhimurium [18]): 0.142; Activity (Salmonella typhimurium [19]): 0.14; fold change (FC) (Salmonella typhimurium [20]): 0; fold change (FC) (Salmonella typhimurium [21]): 0.17; fold change (FC) (Salmonella typhimurium [22]): 0.48; fold change (FC) (Salmonella typhimurium [23]): 0.44; fold change (FC) (Salmonella typhimurium [24]): 0.44; fold change (FC) (Salmonella typhimurium [25]): 0.48; fold change (FC) (Salmonella typhimurium [26]): 0.6; fold change (FC) (Salmonella typhimurium [27]): 0.18; fold change (FC) (Salmonella typhimurium [28]): 0.36; fold change (FC) (Salmonella typhimurium [29]): 0.36 |
